# According to paper PMC4305287, “Two Novel α7 Nicotinic Acetylcholine Receptor Ligands: In Vitro Properties and Their Efficacy in Collagen-Induced Arthritis in Mice” (PLoS ONE, 2015):
# What was measured:
# [1] = test system: T1, human α7 nAChR primed with PNU-120596; experiment: electrophysiology of oocytes primed with PNU-120596; format: biochemical
# T1 construct: expressed in transfected cells; host or cells: Xenopus laevis oocytes injected with cRNA; clones from Dr. Jon Lindstrom (α7) and Dr. Millet Treinin (RIC-3)
# Description: Each oocyte received two initial control applications of 300 μM ACh, followed by the experimental drug application, and subsequent control application of 300 μM ACh, unless otherwise indicated. Responses to experimental drug applications were determined relative to the preceding ACh control responses in order to normalize the data, compensating for the varying levels of channel expression among the oocytes. Responses for α7 nAChR were calculated as net charge, since peak currents inaccurately report the agonist concentration dependence of α7 nAChR-mediated responses. […] Imax, n, and the EC50 were all unconstrained for the fitting procedures except in the case of the ACh concentration-response curves.
# memory retention = test system: memory retention; parameters: method as in PMID 19845675; conditions: cited from earlier work
# microglia = test system: microglia; parameters: method as in PMID 22884467; conditions: cited from earlier work
# [2] = test system: collagen-induced arthritis; parameters: method as in PMID 19116908; conditions: cited from earlier work
smiles,measurement,setting,value
"CCN1C[C@]2(COC(=O)c3ccccc3N3C(=O)C[C@H](C)C3=O)CC[C@H](OC)[C@@]34[C@@H]5C[C@H]6[C@H](OC)[C@@H]5[C@](O)(C[C@@H]6OC)[C@@](O)([C@@H](OC)[C@H]23)[C@@H]14 [MLA, methyllycaconitine]",ion channel response of PNU-120596 primed cells,"[1]; after 60 s priming with 300 μM PNU-120596, PMP-311 1 μM, PMP-072 10 μM, MLA 10 μM",fail to activate the primed cells
O=C(c1ccc(-c2cccc(C(F)(F)F)c2)o1)N1CCN2CCC1CC2 [NS-6740],memory retention in a cognitive mouse model,memory retention,unable to improve memory retention
same,LPS-induced TNF release in microglia,microglia,reduce LPS-induced TNF release
COc1cc(OC)c(NC(=O)Nc2cc(C)on2)cc1Cl [PNU-120596],ion channel current during PNU-120596 application alone,[1]; 300 μM for 60 s,No ion channel current was stimulated
O=C1NCC2(CN3CCC2CC3)O1 (centres unmarked) [AR-R17779],effect on arthritis activity in CIA,[2],ameliorates arthritis activity
